From patent publication US20060140885A1, “Method of reducing oral tissue inflammation using magnolia extract” (priority 2004, published 2006)

The molecules below were run on S. mutans (assay: Minimal Inhibitory Concentration (MIC) in vitro test against S. mutans).
Format: cell-based
Source text: The compositions of the present invention comprise an extract of magnolia. As referred to here, such an “extract” of magnolia is an extract from dried cortex, or bark, of a plant from the Magnoliaceae family, such as Magnolia officinalis, (hereinafter “magnolia”) or a synthetic or semi-synthetic equivalent of such an extract or an active component or compound thereof. […] It should be noted that any plant from the Magnoliaceae family is suitable for the present invention and may be used in alternate embodiments, preferably such that the extract comprises an antimicrobially effective concentration of a compound selected from the group consisting of magnolol, honokiol, tetrahydromagnolol, tetrahydrohonokiol, and mixtures thereof.

Compound | bactericidal properties against S. mutans (MIC test)
C=CCc1ccc(O)c(-c2ccc(O)c(CC=C)c2)c1 [honokiol] | bactericidal properties
C=CCc1ccc(O)c(-c2cc(CC=C)ccc2O)c1 [magnolol] | bactericidal properties
CCCc1ccc(O)c(-c2ccc(O)c(CCC)c2)c1 [tetrahydrohonokiol] | bactericidal properties
CCCc1ccc(O)c(-c2cc(CCC)ccc2O)c1 [tetrahydromagnolol] | bactericidal properties
